Experimental data from US5447916A, “Peptoid alpha-1 adrenergic receptor ligands” (Chiron Corporation, priority 1993, dated 1995).

System: α1-adrenergic receptors
Test: 3H-Prazosin binding assay on rat forebrain membranes
Conditions: for Percent Inhibition: Inhibition at 100 nM (100 nM receptor concentration as printed), 3H-Prazosin; for IC50 / Ki: 0.5 nM 3H-Prazosin; for Ki: 1 hr at room temperature
Protocol: Preparation of Rat Forebrain Membranes:
Rat brains were purchased from Animal Technologies, Tyler, Tex., and shipped on wet ice within 24 hours after being harvested. The forebrains were dissected and homogenized with a Tissue Tearor in 50 mM Tris, pH 7.5, containing 20 mM NaCl, 5 mM EGTA, 2 mM MgCl2, 21 μg/mL aprotinin, 0.5 mg/L leupeptin, 0.7 mg/L pepstatin, 0.2 mM PMSF. Each brain is homogenized in approximately 5 mL of this buffer. The homogenate is then spun at 1000 RPM (75×g) in a Sorval RC-5B centrifuge (SS-34 rotor) for 10 min. The pellets are discarded and the supernatants then respun at 17,000 RPM (22,500×g) for 15 min. The pellets were then resuspended in the same buffer as above containing 5 mM EDTA and no MgCl2 (1 brain/mL). Membranes were stored in 1 mL aliquots at -70° C.
Thawed membranes were dispersed into a homogenous solution by passing them through a 22 gauge needle 5 times. To initiate the assay, 50 μL of membrane were dispensed into a plastic 12×75 mm tube containing 1 mL of 50 mM Tris, pH 7.5, 0.5 nM ^3 H-Prazosin (New England Nuclear), and the compounds to be tested. Nonspecific binding was determined as ^3 H-Prazosin bound in the presence of 5 μM unlabeled prazosin. Incubation was for 1 hr at room temperature. Unbound radioactivity was removed by rinsing the membranes on Whatman GF/B glass fiber filters. Each filter was washed 3 times with 3 mL of 50 mM Tris, pH 7.5, 4° C. Filters were soaked overnight in 5 mL of Beckman ReadySafe scintillation cocktail then counted for one minute in a Wallac 1409 liquid scintillation counter.

Row | Molecule | Percent Inhibition | IC50 | Ki
1 | Nhtyr-Nbiph-Nmhphe [Nhtyr--Nbiph--Nmhphe] | 21.2% |  | 
2 | Nhtyr-Nbiph-Nphphe [Nhtyr--Nbiph--Nphphe] | 48.3% |  | 
3 | Noco-Nbiph-Nhphe [Noco--Nbiph--Nhphe] | 23.6% |  | 
4 | Nphtyr-Nbiph-Nhphe [Nphtyr--Nbiph--Nhphe] | 22.7% |  | 
5 | Nhtyr--Nbiph--Nbhm |  | 1400 nM | 313 nM

Now from value to molecule:

Row | Percent Inhibition | IC50 | Ki | Molecule
6 | 24.8% |  |  | Bz-Nhphe-Nbiph-Nhphe [Bz--Nhphe--Nbiph--Nhphe]
7 |  | 490 nM | 140 nM | Nhtyr-Npop-Nhphe [Nhtyr--Npop--Nhphe]
8 | 53.9% |  |  | Nzhphe-Nbiph-Nhphe [Nzhphe--Nbiph--Nhphe]
9 | 20.3% |  |  | Nhtyr- Npbiph-Nhphe [Nhtyr--Npbiph--Nhphe]
10 |  | 19 nM | 7 nM | NC(=O)CN(CCc1ccccc1)C(=O)CN(C(=O)CNCCc1ccc(O)cc1)c1ccc(-c2ccccc2)cc1 [Nhtyr--Nbiph--Nhphe, Nhtyr-Nbiph-Nhphe]
